# Data as given in patent US6602900B2, “Cyclopentane heptan(ENE)oic acid, 2-heteroarylalkenyl derivatives as therapeutic agents” (Allergan, Inc., priority 1992, dated 2003).
# Where two headings read alike, the source gives them in different places.
# What was measured:
# [1] = molecular target: T1, EP3 receptor (UniProt A0A286XLZ9); experiment: EP3-activity: inhibition of the twitch response induced by electrical field stimulation in the isolated guinea pig vas deferens; format: cell-based; details: pa = printed beside some values, read-out: EC50 (nM) EP3, first value of the cell
# T1 sequence (A0A286XLZ9 1-363): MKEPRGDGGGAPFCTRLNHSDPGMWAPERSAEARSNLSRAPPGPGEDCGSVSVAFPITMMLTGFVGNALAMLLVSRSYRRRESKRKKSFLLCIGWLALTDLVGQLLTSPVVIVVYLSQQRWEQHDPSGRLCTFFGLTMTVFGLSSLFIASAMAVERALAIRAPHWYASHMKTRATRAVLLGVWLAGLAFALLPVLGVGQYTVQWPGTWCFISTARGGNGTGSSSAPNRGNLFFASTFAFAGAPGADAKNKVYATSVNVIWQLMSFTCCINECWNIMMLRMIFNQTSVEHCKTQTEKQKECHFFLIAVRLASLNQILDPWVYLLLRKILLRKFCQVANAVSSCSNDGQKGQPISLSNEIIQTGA
# Experimental: (§1) Activity at different prostanoid receptors was measured in vitro in isolated smooth muscle preparations. FP-activity was measured as contraction of the isolated feline iris sphincter. EP1-activity was measured as contraction of the longitudinal smooth muscle of the isolated guinea pig ileum. EP3-activity was measured as inhibition of the twitch response induced by electrical field stimulation in the isolated guinea pig was deferens and as contraction of the longitudinal smooth muscle of the isolated chick ileum. Activity was also measured as relaxation of smooth muscle of isolated rabbit jugular vein a preparation which appears to contain a unique PGF2α-sensitive receptor provisionally termed FPVASC. TP-vasoconstrictor activity was measured as contraction of rings of the isolated rat thoracic aorta. Effects on platelets from healthy human donors were measured by incubating platelet-rich plasma with the compounds described herein. Inhibition of aggregation was determined by the ability of the compounds described herein to inhibit platelet aggregation in platelet-rich plasma induced by 20 μM ADP.
# [2] = tested on: PGF2α-sensitive receptor provisionally termed FPVASC; experiment: Relaxation of smooth muscle of isolated rabbit jugular vein; format: cell-based
# Experimental: as §1
# [3] = tested on: Dog eye (hyperemia); experiment: Ocular surface hyperemia in dogs after topical dosing; format: in vivo; design: scale not given here
# [4] = tested on: Dog eye (miosis); experiment: Miosis in dogs after topical dosing; format: in vivo
# [5] = molecular target: T2, EP1 receptor (Cavia porcellus, UniProt A0A286XHJ6); experiment: EP1-activity: contraction of the longitudinal smooth muscle of the isolated guinea pig ileum; format: cell-based
# T2 sequence (A0A286XHJ6 1-405): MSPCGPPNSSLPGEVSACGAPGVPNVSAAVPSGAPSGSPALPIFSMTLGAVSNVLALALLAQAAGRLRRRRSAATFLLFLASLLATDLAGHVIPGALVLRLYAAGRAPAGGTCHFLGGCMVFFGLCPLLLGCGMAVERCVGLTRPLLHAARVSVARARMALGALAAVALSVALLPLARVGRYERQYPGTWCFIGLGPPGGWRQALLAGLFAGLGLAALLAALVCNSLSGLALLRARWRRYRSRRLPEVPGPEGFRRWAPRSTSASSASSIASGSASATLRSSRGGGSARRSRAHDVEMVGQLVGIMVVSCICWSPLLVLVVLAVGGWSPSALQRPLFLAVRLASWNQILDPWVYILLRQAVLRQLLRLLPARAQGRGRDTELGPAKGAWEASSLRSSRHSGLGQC
# Experimental: as §1
# [6] = molecular target: T3, TP receptor (Rattus norvegicus, UniProt P34978); experiment: TP-vasoconstrictor activity: contraction of rings of the isolated rat thoracic aorta; format: cell-based
# T3 construct: rings of the isolated rat thoracic aorta; from tissue; host or cells: isolated rat thoracic aorta rings
# T3 sequence (P34978 1-341): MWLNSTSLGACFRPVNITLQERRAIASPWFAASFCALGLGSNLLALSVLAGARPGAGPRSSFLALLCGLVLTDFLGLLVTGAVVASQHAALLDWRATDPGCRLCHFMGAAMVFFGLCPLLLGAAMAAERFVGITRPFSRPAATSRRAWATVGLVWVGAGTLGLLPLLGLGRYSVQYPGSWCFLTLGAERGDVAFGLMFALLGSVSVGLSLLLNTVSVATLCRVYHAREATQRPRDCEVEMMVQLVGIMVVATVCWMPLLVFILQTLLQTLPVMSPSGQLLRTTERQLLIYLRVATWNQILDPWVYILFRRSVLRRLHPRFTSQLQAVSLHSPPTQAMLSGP
# Experimental: as §1
# [7] = isolated rabbit jugular vein relaxation, read-out: EC50 (nM) FPVASC
# [8] = isolated rat thoracic aorta contraction, read-out: EC50 (nM) TP
# [9] = read-out: rbFPv/EP4, Table of compounds 17a-25, unit inferred
# [10] = Table of compounds 17a-25, unit inferred, read-out: rtTPva
EC50 [1],"EC50 [2, 7]",EC50 [5],"EC50 [6, 8]",SMILES,"EC50 [2, 9]",further results
~10000 nM,2660 nM,,,O=C(O)CCC/C=C\C[C@@H]1[C@@H](/C=C/[C@@H](O)CCc2cc3ccccc3s2)[C@H](O)C[C@@H]1O,,
,28300 nM,,,O=C(O)CCC/C=C\C[C@@H]1[C@@H](/C=C/[C@H](O)CCc2nccs2)[C@H](O)C[C@@H]1O,,
9000 nM,> 69000 nM,,,O=C(O)CCC/C=C\C[C@@H]1[C@@H](/C=C/[C@@H](O)CCc2cc3ccccc3o2)[C@H](O)C[C@@H]1O,,Hyp (hyperemia score) ([3]; 0.01%): 0.17; Hyp (hyperemia score) ([3]; 0.1%): 0.13; Miosis ([4]; 0.01%): 0; Miosis ([4]; 0.1%): 0
36 nM,8.5 nM,> 10000 nM,5080 nM,O=C(O)CCC/C=C\C[C@@H]1[C@@H](/C=C/[C@@H](O)CCc2ccc(Br)s2)[C@H](O)C[C@@H]1O,,Hyp (hyperemia score) ([3]; 0.1%): 1.0; Miosis ([4]; 0.1%): pinpoint
355 nM,> 833 nM,> 10000 nM,3980 nM,Cc1sccc1CC[C@H](O)/C=C/[C@@H]1[C@@H](C/C=C\CCCC(=O)O)[C@@H](O)C[C@H]1O,,
> 10000 nM,3.6 nM,> 10000 nM,> 10000 nM,NC(=O)CCC/C=C\C[C@@H]1[C@@H](/C=C/[C@@H](O)CCc2ccsc2)[C@H](O)C[C@@H]1O,,
,,,,"N#Cc1ccc(CC[C@H](O)/C=C/[C@@H]2[C@@H](C/C=C\CCCC(N)=O)[C@@H](O)C[C@H]2O)s1 [Compound 17b, 7-[3α,5α-Dihydroxy-2-(3α-hydroxy-5-(2-(5-cyano)thienyl)-1E-pentenyl)cyclopentyl]-5Z-heptenamide]",> 256000 nM,
,1000 nM,,,O=C(O)CCC/C=C\C[C@@H]1[C@@H](/C=C/[C@@H](O)CCc2nccs2)[C@H](O)C[C@@H]1O,,Hyp (hyperemia score) ([3]; 0.1%): 0.6; Miosis ([4]; 0.1%): pinpoint
,82 nM,,> 10000 nM,NC(=O)CCC/C=C\C[C@@H]1[C@@H](/C=C/[C@@H](O)CCc2cc(Cl)sc2Cl)[C@H](O)C[C@@H]1O,,Hyp (hyperemia score) ([3]; 0.1%): 1.2; Miosis ([4]; 0.1%): pinpoint
189 nM,2.1 nM,> 10000 nM,~10000 nM,CO[C@H](/C=C/[C@@H]1[C@@H](C/C=C\CCCC(=O)O)[C@@H](O)C[C@H]1O)CCc1ccsc1,,Hyp (hyperemia score) ([3]; 0.1%): 0.83; Miosis ([4]; 0.1%): pinpt
,,,,O=C(O)CCC/C=C\C[C@@H]1[C@@H](/C=C/[C@@H](O)CCc2sccc2F)[C@H](O)C[C@@H]1O [Compound 18b],2.9 nM,"EC50 [6, 10]: 3500 nM"
,,,,"CS(=O)(=O)NC(=O)CCC/C=C\C[C@@H]1[C@@H](/C=C/[C@@H](O)CCc2ccc(Cl)s2)[C@H](O)C[C@@H]1O [Compound 20a, N-Methylsulfonyl-7-[3α,5α-Dihydroxy-2-(3α-hydroxy-5-(2-(5-chloro)thienyl)-1E-pentenyl)cyclopentyl]-5Z-heptenamide]",6070 nM,
,,,,"CC(C)OC(=O)CCC/C=C\C[C@@H]1[C@@H](/C=C/[C@@H](O)CCc2ccc(C#N)s2)[C@H](O)C[C@@H]1O [Compound 17c, Isopropyl-7-[3α,5α-Dihydroxy-2-(3α-hydroxy-5-(2-(5-cyano)thienyl)-1-E-pentenyl)cyclopentyl]-5Z-heptenoate]",6510 nM,
,58 nM,,,O=C(O)CCC/C=C\C[C@@H]1[C@@H](/C=C/[C@H](O)CCc2ccsc2)[C@H](O)C[C@@H]1O,,
,122 nM,> 10000 nM,3530 nM,O=C(O)CCC/C=C\C[C@@H]1[C@@H](/C=C/[C@@H](O)CCc2sccc2Cl)[C@H](O)C[C@@H]1O,,
,,,,"CCS(=O)(=O)NC(=O)CCC/C=C\C[C@@H]1[C@@H](/C=C/[C@@H](O)CCc2ccc(I)s2)[C@H](O)C[C@@H]1O [Compound 21b, N-Ethylsulfonyl-7-[3α,5α-Dihydroxy-2-(3α-hydroxy-5-(2-(5-iodo)thienyl)-1E-pentenyl)cyclopentyl]-5Z-heptenamide]",189 nM,
341 nM,> 7690 nM,> 10000 nM,> 10000 nM,Cc1ccc(CC[C@H](O)/C=C/[C@@H]2[C@@H](C/C=C\CCCC(=O)O)[C@@H](O)C[C@H]2O)s1,,
,,,,"N#Cc1ccc(CC[C@H](O)/C=C/[C@@H]2[C@@H](C/C=C\CCCC(=O)O)[C@@H](O)C[C@H]2O)s1 [Compound 17a, 7-[3α,5α-Dihydroxy-2-(3α-hydroxy-5-(2-(5-cyano)thienyl)-1E-pentenyl)cyclopentyl]-5Z-heptenoic acid]",112 nM,"EC50 [6, 10]: ~10000 nM"
,,,,"CS(=O)(=O)NC(=O)CCC/C=C\C[C@@H]1[C@@H](/C=C/[C@@H](O)CCc2ccc(I)s2)[C@H](O)C[C@@H]1O [Compound 21a, N-Methylsulfonyl-7-[3α,5α-Dihydroxy-2-(3α-hydroxy-5-(2-(5-iodo)thienyl)-1E-pentenyl)cyclopentyl]-5Z-heptenamide]",1820 nM,
50 nM,16 nM,> 10000 nM,371 nM,O=C(O)CCC/C=C\C[C@@H]1[C@@H](/C=C/[C@@H](O)CCc2cc(Br)cs2)[C@H](O)C[C@@H]1O,,
400 nM,9.2 nM,2000 nM,2460 nM,O=C(O)CCC/C=C\C[C@@H]1[C@@H](/C=C/[C@@H](O)CCc2ccsc2)[C@H](O)C[C@@H]1O [drawing 12],,Hyp (hyperemia score) ([3]; 0.1%): 0.6; Miosis ([4]; 0.1%): pinpoint
,21 nM,,> 10000 nM,CCc1ccc(CC[C@H](O)/C=C/[C@@H]2[C@@H](C/C=C\CCCC(=O)O)[C@@H](O)C[C@H]2O)s1,,
,> 5880 nM,,,O=C(O)CCC/C=C\C[C@@H]1[C@@H](CCC(O)CCc2ccoc2)[C@H](O)C[C@@H]1O (some centres unmarked),,
,,,,"CCS(=O)(=O)NC(=O)CCC/C=C\C[C@@H]1[C@@H](/C=C/[C@@H](O)CCc2ccc(Cl)s2)[C@H](O)C[C@@H]1O [Compound 20b, N-Ethylsulfonyl-7-[3α,5α-Dihydroxy-2-(3α-hydroxy-5-(2-(5-chloro)thienyl)-1E-pentenyl)cyclopentyl]-5Z-heptenamide]",1040 nM,
,,,,"O=C(CCC/C=C\C[C@@H]1[C@@H](/C=C/[C@@H](O)CCc2ccc(Cl)s2)[C@H](O)C[C@@H]1O)NS(=O)(=O)C(F)(F)F [Compound 20c, N-Trifluoromethylsulfonyl-7-[3α,5α-Dihydroxy-2-(3α-hydroxy-5-(2-(5-chloro)thienyl)-1E-pentenyl)cyclopentyl]-5Z-heptenamide]",221 nM,"EC50 [6, 10]: > 10000 nM"
,,,,"O=C(CCC/C=C\C[C@@H]1[C@@H](/C=C/[C@@H](O)CCc2ccc(I)s2)[C@H](O)C[C@@H]1O)NS(=O)(=O)C(F)(F)F [Compound 21c, N-Trifluoromethylsulfonyl-7-[3α,5α-Dihydroxy-2-(3α-hydroxy-5-(2-(5-iodo)thienyl)-1E-pentenyl)cyclopentyl]-5Z-heptenamide]",36 nM,
,,,,NC(=O)CCC/C=C\C[C@@H]1[C@@H](/C=C/[C@H](O)CCc2ccsc2)[C@H](O)C[C@@H]1O,,Hyp (hyperemia score) ([3]; 0.1%): 0.72; Miosis ([4]; 0.1%): pin
83 nM,,> 10000 nM,5400 nM,O=C(O)CCC/C=C\C[C@@H]1[C@@H](/C=C/[C@@H](O)CCc2ccoc2)[C@H](O)C[C@@H]1O,,Hyp (hyperemia score) ([3]; 0.01%): 0.83; Hyp (hyperemia score) ([3]; 0.1%): 0.38; Miosis ([4]; 0.01%): mild; Miosis ([4]; 0.1%): pinpoint
105 nM,545 nM,> 10000 nM,4740 nM,O=C(O)CCC/C=C\C[C@@H]1[C@@H](CC[C@@H](O)CCc2ccsc2)[C@H](O)C[C@@H]1O,,
